Measurements as given in PMC8380212, “^18F-labeled tracers targeting fibroblast activation protein” (EJNMMI Radiopharmacy and Chemistry, 2021).

Experiments:
[1] = target: T1, CD26 expressing HEK-CD26 cells (Homo sapiens, UniProt P27487); experiment: In vitro binding on HEK-CD26 cells (negative control); assay type: cell-based
T1 construct: expressed in transfected cells; host or cells: HEK cells transfected with CD26/DPP4 (HEK-CD26)
Experimental: (§1) The binding properties of the FAPI derivatives were evaluated using the FAP‐transfected HT‐1080‐FAP and CD26 expressing HEK-CD26 cells. All cells were cultivated in Dulbecco's modified Eagle's medium (DMEM) containing 10% fetal calf serum (FCS) at 37 °C/5% carbon dioxide. Cells were seeded in 6-well plates and cultivated to a final confluence of approximately 80–90% (1.2 to 2.0 × 10^6 cells/well). After washing with FCS free medium, for each well ca. 3 kBq of the radiolabeled compound (10–20 GBq/µmol for [^18F]AlF-labeling) was added to the cells in FCS free medium. On completion of the individual incubation time, cells were washed with PBS and treated with 1.4 mL lysis buffer (0.3 m NaOH, 0.2% SDS) before being transferred to measuring tubes. Competition experiments were performed by co-incubation with the unlabeled precursor for 60 min. Radioactivity was determined in a Wizard Gamma Counter (Perkin Elmer), normalized to 10^6 cells and calculated as percentage of the applied dose (%AD). Each experiment was performed in triplicate.

FAP (HT-1080-FAP cells) = target: T2, FAP (HT-1080-FAP cells) (Homo sapiens, UniProt Q12884); experiment: Competition experiments with unlabeled precursor on HT-1080-FAP cells; assay type: binding; details: co-incubation with unlabeled precursor for 60 min
T2 construct: expressed in transfected cells; host or cells: HT-1080 cells transfected with FAP (HT-1080-FAP)
T2 sequence (Q12884 1-760): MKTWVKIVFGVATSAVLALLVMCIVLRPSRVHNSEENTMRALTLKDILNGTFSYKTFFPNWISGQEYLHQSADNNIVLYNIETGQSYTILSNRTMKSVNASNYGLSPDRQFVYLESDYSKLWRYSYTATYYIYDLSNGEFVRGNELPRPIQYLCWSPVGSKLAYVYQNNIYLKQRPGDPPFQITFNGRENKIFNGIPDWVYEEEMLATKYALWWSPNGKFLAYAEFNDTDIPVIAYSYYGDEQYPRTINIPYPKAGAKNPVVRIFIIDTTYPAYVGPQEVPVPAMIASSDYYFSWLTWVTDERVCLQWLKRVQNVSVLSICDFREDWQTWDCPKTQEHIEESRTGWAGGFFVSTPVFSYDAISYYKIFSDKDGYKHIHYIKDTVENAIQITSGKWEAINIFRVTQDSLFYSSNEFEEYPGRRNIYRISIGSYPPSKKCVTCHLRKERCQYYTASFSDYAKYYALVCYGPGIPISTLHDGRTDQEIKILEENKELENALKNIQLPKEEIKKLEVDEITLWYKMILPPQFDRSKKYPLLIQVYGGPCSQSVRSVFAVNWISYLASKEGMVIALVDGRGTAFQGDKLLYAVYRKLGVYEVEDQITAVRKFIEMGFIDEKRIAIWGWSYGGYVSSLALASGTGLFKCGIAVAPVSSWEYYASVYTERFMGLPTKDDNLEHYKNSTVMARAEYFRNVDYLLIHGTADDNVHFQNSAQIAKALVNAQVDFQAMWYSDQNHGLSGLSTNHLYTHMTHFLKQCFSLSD
Experimental: as §1

HT-1080-FAP xenografts [2] = experiment: Small animal PET imaging; assay type: in vivo, BALB/c nu/nu mice
Experimental: (§2) Eight-week-old BALB/c nu/nu mice (Charles River) were subcutaneously inoculated with 5 × 10^6 HT-1080-FAP cells. The subcutaneous xenografts were grown at the flanks of the mice. Xenografts were grown to a tumor diameter of 10–15 mm. Mice were anesthetized using isoflurane inhalation. 5–10 MBq of the [^18F]AlF-labeled compounds/ the respective tracer (FAPI-42/52/74/75/76; approx. 0.5 nmol; Am approximately 10–20 GBq/µmol) were injected intravenously for PET imaging. In vivo competition (blocking) experiments with ^68 Ga-FAPI-74 (9 MBq; 18.2 GBq/µmol) were performed by adding 30 nmol of unlabeled FAPI-74 to the injection solution. Images were acquired using a small-animal PET scanner (Inveon, Siemens). Within the first 60 min p.i., a dynamic scan was performed in list mode, followed by a static scan from 120–140 min post injection. Images were reconstructed iteratively using the 3D-OSEM + MAP method (Siemens) and were converted to standardized uptake value (SUV). For the dynamic analysis, 28 frames were reconstructed. Quantification was based on ROI analysis and expressed as SUV.
SUPPLEMENTAL TABLE 1: Tumor-SUVmean values of all mentioned ^18F labeled FAPI-derivatives in HT1080-FAP transplanted nude mice at different time points. The time points 8 min, 22 min and 57 min were selected from the applied 28-frame 3D-OSEM+MAP (Siemens) reconstruction method.

HT-1080-FAP xenografts [3] = experiment: Organ distribution (biodistribution) study; assay type: in vivo, BALB/c nu/nu mice
Experimental: as §2
To reduce radiation exposure, the organ distribution study was performed with 1 MBq per animal. […] The radioactivity was measured using a γ-counter (Packard Cobra II Autogamma, GMI Inc., USA) and expressed as percentage of injected dose per gram of tissue (%ID/g). […]

[4] = test system: NSCLC primary tumor and metastases; experiment: Clinical PET/CT imaging of a patient with NSCLC; assay type: in vivo, human; details: for SUVmean / SUVmax: primary tumor and metastases; for SUVmax: 323 MBq i.v.
Experimental: [^18F]AlF-FAPI-74 (16.2 GBq/µmol at time of injection) was applied intravenously (20 nmol; 323 MBq) to a patient with NSCLC. The PET/CT scans were performed 1 and 3 h post tracer administration with a Biograph mCT Flow™ PET/CT-Scanner (Siemens Medical Solutions). The parameters used were slice thickness of 5 mm, increment of 3–4 mm, soft-tissue reconstruction kernel and care dose. After CT scanning, a whole-body PET was acquired in 3D (matrix 200 × 200) in FlowMotion™ with 0.7 cm/min. The emission data were corrected for random, scatter and decay. Reconstruction was conducted with an ordered subset expectation maximization (OSEM) algorithm with 2 iterations/21 subsets and Gauss-filtered to a transaxial resolution of 5 mm at full-width half-maximum. Attenuation correction was performed using the low-dose non-enhanced CT data. The quantitative assessment of standardized uptake values (SUV) was done using a region of interest technique.

[5] = small animal PET, HT-1080-FAP xenograft

T1 sequence (P27487 whole entry): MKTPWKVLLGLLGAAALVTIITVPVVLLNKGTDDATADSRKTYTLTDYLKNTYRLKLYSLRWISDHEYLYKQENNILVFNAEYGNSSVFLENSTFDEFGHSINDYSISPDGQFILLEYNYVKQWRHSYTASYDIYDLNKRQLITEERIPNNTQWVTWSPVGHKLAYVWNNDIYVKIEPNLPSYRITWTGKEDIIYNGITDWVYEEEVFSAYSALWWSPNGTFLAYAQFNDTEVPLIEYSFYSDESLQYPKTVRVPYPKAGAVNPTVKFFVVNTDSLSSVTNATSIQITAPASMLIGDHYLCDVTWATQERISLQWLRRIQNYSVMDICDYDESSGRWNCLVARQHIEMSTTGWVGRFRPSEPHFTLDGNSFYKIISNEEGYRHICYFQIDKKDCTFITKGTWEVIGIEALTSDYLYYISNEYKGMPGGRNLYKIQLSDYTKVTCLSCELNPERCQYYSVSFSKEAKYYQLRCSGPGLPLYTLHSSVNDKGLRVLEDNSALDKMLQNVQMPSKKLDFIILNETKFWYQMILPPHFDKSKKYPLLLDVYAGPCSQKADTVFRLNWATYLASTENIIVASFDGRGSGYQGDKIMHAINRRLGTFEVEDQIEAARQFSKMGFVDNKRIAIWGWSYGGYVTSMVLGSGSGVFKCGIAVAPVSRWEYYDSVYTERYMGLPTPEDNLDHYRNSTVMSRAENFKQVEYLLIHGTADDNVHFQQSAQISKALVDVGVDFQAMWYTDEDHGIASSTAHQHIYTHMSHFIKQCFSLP

N#C[C@@H]1CCCN1C(=O)CNC(=O)c1ccnc2ccc(OCCCN3CCN(C(=O)CN4CCN(CC(=O)O)CCN(CC(=O)O)CC4)CC3)cc12 [FAPI-74]
uptake CD26 [1]: 0.18 ± 0.04 %AD/10^6 cells | EC50 (FAP (HT-1080-FAP cells)): 4.2 nM | Tumor Uptake (SUVmean) 8 min (HT-1080-FAP xenografts [2]; HT1080-FAP transplanted nude mice, 8 min): 1.58 | Tumor Uptake (SUVmean) 22 min (HT-1080-FAP xenografts [2]; HT1080-FAP transplanted nude mice, 22 min): 1.81 | Tumor Uptake (SUVmean) 57 min (HT-1080-FAP xenografts [2]; HT1080-FAP transplanted nude mice, 57 min): 1.91 | Tumor Uptake (SUVmean) 120 min (HT-1080-FAP xenografts [2]; HT1080-FAP transplanted nude mice, 120 min): 1.3 | excretion pathway (HT-1080-FAP xenografts [2]; small animal PET in tumor bearing mice): favorable renal excretion | tumor uptake SUVmean (HT-1080-FAP xenografts [2]; small animal PET screening, discussion): approx. 2.0 | tumor-SUV max (HT-1080-FAP xenografts [2]; [5]): 2.3 | tumor-SUV mean (HT-1080-FAP xenografts [2]; [5]): 1.9 | tumor uptake (HT-1080-FAP xenografts [3]; after 30 min, HT-1080-FAP bearing Balb/c nu/nu mice): 6.9 %ID/g | early tumor uptake (HT-1080-FAP xenografts [3]; early, discussion): approximately 7 %ID/g | excretion route in patient ([4]; non-target tissues and blood pool): excreted predominantly via the kidneys | SUV in normal tissues ([4]; normal tissues of the patient): almost zero | SUVmean ([4]; 1 h): 3.3 ± 0.6 | SUVmax ([4]; 1 h): 6.5 ± 1.1 | SUVmean ([4]; 3 h): 2.75 ± 0.5 | SUVmax ([4]; 3 h): 5.6 ± 0.7
